For data set [1], the target named is T1, RXRα (Homo sapiens, UniProt P19793).
T1 sequence (P19793 1-462): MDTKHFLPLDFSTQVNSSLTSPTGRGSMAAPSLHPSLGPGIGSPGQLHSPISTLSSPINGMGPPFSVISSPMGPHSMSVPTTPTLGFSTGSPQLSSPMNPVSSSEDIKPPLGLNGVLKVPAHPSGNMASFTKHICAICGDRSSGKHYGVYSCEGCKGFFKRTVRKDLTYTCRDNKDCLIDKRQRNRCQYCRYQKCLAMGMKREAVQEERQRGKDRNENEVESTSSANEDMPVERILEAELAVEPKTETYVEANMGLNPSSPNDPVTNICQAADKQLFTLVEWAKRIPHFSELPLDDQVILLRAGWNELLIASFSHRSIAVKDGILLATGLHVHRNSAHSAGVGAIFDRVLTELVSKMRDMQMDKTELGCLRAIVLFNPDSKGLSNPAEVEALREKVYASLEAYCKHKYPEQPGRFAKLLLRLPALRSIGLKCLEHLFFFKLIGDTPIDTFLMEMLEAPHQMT
Description: holoreceptor transactivation assay, RXRα.
Description: (§1) The results obtained in this assay are expressed in EC50 numbers, as they are also in the chimeric receptor transactivation assay.
(§2) Efficacy in a transactivation assay is expressed as a percentage of the maximum potency attained by the compound compared to a standard which, in this case, is the compound named (2E, 4E, 1′S, 2′S)-3-methyl-5-[2′-methyl-2′-(5,5,8,8-tetramethyl-5,6,7,8-tetrahydro-naphthalen-2-yl)-cyclopropyl]-penta-2,4-dienoic acid.
(§3) Particularly, the transactivation data pertaining to activation of the RAR receptors were obtained in the chimeric assay, and the transactivation data pertaining to the activation of RXR receptors were obtained in the holoreceptor assay.

Data set [2] deals with T2, RXRβ (Homo sapiens, UniProt P28702).
T2 sequence (P28702 1-533): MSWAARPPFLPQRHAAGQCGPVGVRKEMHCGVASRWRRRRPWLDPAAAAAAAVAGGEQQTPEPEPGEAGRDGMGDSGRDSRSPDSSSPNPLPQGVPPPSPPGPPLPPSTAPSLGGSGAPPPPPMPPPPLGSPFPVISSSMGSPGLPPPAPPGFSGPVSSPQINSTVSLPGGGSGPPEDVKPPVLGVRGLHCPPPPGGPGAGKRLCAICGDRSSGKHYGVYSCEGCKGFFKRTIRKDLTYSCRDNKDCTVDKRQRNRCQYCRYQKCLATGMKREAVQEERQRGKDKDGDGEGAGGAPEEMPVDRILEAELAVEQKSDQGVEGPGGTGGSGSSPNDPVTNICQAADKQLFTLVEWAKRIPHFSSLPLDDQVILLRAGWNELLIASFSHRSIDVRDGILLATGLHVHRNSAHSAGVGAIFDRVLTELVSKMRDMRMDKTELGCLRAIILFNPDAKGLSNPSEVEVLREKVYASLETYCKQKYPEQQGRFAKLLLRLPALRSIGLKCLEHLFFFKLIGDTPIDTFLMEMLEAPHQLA
Description: holoreceptor transactivation assay, RXRβ.
Description: as §1, §2, §3

Data set [3] has as its target T3, RXRγ (Homo sapiens, UniProt P48443).
T3 sequence (P48443 1-463): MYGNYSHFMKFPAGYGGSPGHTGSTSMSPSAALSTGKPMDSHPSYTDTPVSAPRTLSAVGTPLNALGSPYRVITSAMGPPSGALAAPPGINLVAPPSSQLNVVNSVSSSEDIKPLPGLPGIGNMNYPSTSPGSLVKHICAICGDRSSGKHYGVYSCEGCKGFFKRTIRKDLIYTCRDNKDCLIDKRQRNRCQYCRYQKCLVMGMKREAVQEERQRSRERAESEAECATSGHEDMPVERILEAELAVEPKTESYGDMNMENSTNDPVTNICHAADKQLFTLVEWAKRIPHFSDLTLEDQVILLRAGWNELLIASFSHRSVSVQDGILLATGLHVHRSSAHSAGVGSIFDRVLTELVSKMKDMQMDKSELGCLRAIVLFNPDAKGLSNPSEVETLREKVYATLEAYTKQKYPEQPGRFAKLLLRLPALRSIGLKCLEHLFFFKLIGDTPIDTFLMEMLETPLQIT
The data set is described as follows: holoreceptor transactivation assay, RXRγ.
Description: as §1, §2, §3

In data set [4] the target is T4, RARβ (Homo sapiens, UniProt P10826).
T4 sequence (P10826 183-417 limits assumed): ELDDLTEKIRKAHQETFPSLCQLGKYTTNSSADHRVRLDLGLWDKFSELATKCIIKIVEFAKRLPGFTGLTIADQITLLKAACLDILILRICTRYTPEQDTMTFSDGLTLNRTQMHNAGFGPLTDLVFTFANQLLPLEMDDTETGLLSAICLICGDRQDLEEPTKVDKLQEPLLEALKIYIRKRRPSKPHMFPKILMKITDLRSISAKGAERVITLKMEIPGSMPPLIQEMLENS
The data set is described as follows: chimeric receptor transactivation assay, RARβ. The settings on record: for RAR β transactivation efficacy as a percentage compared to the standard compound: value in parentheses, relative to standard compound of U.S. Pat. No. 6,114,533.
Description: as §2, §3

The target of data set [5] is T5, RARα (Homo sapiens, UniProt P10276).
T5 sequence (P10276 1-462): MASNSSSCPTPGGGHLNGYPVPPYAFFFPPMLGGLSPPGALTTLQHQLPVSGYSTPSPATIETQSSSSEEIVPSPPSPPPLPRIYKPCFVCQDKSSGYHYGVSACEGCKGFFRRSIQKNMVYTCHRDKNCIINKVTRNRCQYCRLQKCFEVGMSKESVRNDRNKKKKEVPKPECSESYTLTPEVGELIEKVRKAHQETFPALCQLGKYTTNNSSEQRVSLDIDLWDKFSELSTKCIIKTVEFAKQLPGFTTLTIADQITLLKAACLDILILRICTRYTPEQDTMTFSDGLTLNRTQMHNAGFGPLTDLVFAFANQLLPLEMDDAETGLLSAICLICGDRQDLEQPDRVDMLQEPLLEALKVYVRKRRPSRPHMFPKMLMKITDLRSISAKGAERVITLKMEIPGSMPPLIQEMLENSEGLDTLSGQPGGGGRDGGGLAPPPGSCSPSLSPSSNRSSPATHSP
The data set is described as follows: ligand binding assay, RARα.
Description: (§4) The results of the ligand binding assay are expressed in Ki numbers.

For data set [6], the target named is T6, RARγ (Homo sapiens, UniProt P13631).
T6 sequence (P13631 1-454): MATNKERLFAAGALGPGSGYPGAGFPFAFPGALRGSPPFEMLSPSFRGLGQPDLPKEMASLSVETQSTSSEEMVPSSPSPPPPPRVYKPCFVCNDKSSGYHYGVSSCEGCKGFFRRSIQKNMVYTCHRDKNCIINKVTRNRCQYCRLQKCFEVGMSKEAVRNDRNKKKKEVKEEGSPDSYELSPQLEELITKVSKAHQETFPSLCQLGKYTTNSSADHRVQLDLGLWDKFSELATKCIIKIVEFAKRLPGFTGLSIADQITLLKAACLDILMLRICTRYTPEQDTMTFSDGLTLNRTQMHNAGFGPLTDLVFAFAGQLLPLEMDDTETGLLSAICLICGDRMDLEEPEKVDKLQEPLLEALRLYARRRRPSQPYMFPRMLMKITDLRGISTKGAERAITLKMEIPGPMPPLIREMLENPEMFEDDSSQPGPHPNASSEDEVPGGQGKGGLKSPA
Description: ligand binding assay, RARγ.
Description: as §4

Data set [7] has as its target T2, RXRβ. The data set is described as follows: ligand binding assay, RXRβ.
Description: as §4
For data set [8], the target named is T7, RARβ (Homo sapiens, UniProt P10826).
T7 sequence (P10826 1-455): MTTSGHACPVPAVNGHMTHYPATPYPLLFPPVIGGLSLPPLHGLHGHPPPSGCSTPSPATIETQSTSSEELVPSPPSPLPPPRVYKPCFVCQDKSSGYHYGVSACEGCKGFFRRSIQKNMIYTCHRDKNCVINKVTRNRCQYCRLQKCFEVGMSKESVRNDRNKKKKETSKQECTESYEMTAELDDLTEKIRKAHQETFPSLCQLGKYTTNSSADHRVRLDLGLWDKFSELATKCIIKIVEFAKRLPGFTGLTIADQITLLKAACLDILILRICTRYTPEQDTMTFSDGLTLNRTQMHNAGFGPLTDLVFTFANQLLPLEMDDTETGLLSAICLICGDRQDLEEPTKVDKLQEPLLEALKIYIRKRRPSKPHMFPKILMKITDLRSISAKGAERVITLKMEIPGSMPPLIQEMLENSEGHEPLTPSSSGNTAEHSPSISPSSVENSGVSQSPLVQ
The data set is described as follows: ligand binding assay, RARβ.
Description: as §4

Data set [9] has as its target T1, RXRα. Description: ligand binding assay, RXRα.
Description: as §4
Data set [10] has as its system Female diabetic db/db mice. Description: serum glucose, triglyceride and thyroxine levels in female db/db mice.
Description: An assay described below tests the effect of compounds of the invention on serum glucose, tryglyceride and thyroxine levels in female 9-10 weeks old db/db mice.
Female diabetic db/db (9-10 weeks old) mice were maintained on standard laboratory food and treated by oral gavage with vehicle (corn oil), standard compound (2E, 4E, 1′S, 2′S)-3-methyl-5-[2′-methyl-2′-(5,5,8,8-tetramethyl-5,6,7,8-tetrahydro-naphthalen-2-yl)-cyclopropyl]-penta-2,4-dienoic acid (5 mg/kg) or the test compound (5-100 mg/kg, as described in Table 2) daily for seven days at 8:00 AM. Blood samples (70 μ) were taken by orbital bleeding at 11:00 AM on day 0 (pre-treatment), day 3, and day 6. On day 7, a blood sample (700 μt) was taken at 11:00 AM and the animals were sacrificed. Glucose, triglyceride and thyroxine (T4) levels were determined on a Boehringer Manheim Hatachi Clinical Chemistry Analyzer using standard protocols provided by the manufacturer and reagents that were supplied in commercially available kits (glucose and T4: Boehringer Manheim; triglycerides: Roche Diagnostics).
Where [11] appears, read: value in parentheses, relative to standard compound of U.S. Pat. No. 6,114,533.
Where [12] appears, read: Day 0 (pre-treatment), female db/db mice, group later given standard compound 5 mg/kg or Compound 6 50 mg/kg by oral gavage.
Where [13] appears, read: Day 3, 3 h, oral gavage daily, standard compound 5 mg/kg, Compound 6 50 mg/kg.

The text below walks through data of patent US6884820B2, “5,6,7,8-tetrahydronaphthalen-2-yl-7-fluoroalkyl-heptatrienoic acid derivatives having serum glucose reducing activity” (Allergan, Inc., priority 2003, dated 2005).

The EC50 is the concentration needed to bring the measured effect to its halfway point. A higher EC50 goes with weaker potency. By Ki is commonly meant a dissociation constant, usually derived from enzyme kinetics or from competition with a known ligand. Low readings indicate higher affinity, high ones lower affinity. For `COc1cc2c(cc1C(=C/C=C/C(C)=C/C(=O)O)C(F)(F)F)C(C)(C)CCC2(C)C` (stereo in doubt) [Compound 5, (2E,4E,6Z)-8,8,8-Trifluoro-7-(3-methoxy-5,5,8,8-tetramethyl-5,6,7,8-tetrahydro-naphthalen-2-yl)-3-methyl-octa-2,4,6-trienoic acid], the EC50 in data set [1] stood at 0.6 nM; in data set [2], 5 nM; in [3], 2 nM; in data set [4], 150 nM. The “RXR α transactivation efficacy as a percentage compared to the standard compound” value in data set [1] (setting [11]) was found to be 112%. Also, in data set [2] (setting [11]), the “RXR β transactivation efficacy as a percentage compared to the standard compound” value was found to be 111%. Moreover, the “RXR γ transactivation efficacy as a percentage compared to the standard compound” value in data set [3] (setting [11]) is on record as 121%. Moreover, in data set [4], the “RAR β transactivation efficacy as a percentage compared to the standard compound” value is on record as 32%. Also, the inhibition constant Ki in [5] amounted to 504 nM; in data set [6], 1200 nM; in data set [7], 423 nM; in data set [8], 484 nM; in [9] it was 66 nM.
The compound `CCCOc1cc2c(cc1C(=C/C=C/C(C)=C/C(=O)O)C(F)(F)F)C(C)(C)CCC2(C)C` (stereo in doubt) [Compound 7, (2E,4E,6Z)-8,8,8-Trifluoro-3-methyl-7-(5,5,8,8-tetramethyl-3-propoxy-5,6,7,8-tetrahydro-naphthalen-2-yl)-octa-2,4,6-trienoic acid] showed an EC50 in [4] of 54 nM. Further, the “RAR β transactivation efficacy as a percentage compared to the standard compound” value in data set [4] is reported as 9%. In addition, the Ki in data set [5] is 1800 nM; in data set [6], above 10000 nM; in data set [7], 115 nM; in [8] it was 452 nM; in data set [9], 22 nM.
Take `CC(/C=C/[C@@H]1C[C@]1(C)c1ccc2c(c1)C(C)(C)CCC2(C)C)=C\C(=O)O` [Standard compound]: in data set [10] (setting [12]), the “Glucose Day 0” value stood at 526 ± 135 mg/dL and the “Triglycerides Day 0” value was found to be 290 ± 55 mg/dL. For the same compound, in data set [10] (setting [13]), the “Glucose Day 3, 3 h” value is 444 ± 125 mg/dL and the “Triglycerides Day 3, 3 h” value amounted to 590 ± 422 mg/dL. Besides, the “Glucose Day 6, 3 h” value in data set [10] (Day 6, 3 h, oral gavage daily, standard compound 5 mg/kg, Compound 6 50 mg/kg) was determined as 399 ± 128 mg/dL. For the same compound, the “T4 Day 7” value in data set [10] (Day 7, oral gavage daily for seven days, standard compound 5 mg/kg, Compound 6 50 mg/kg) is 1.5 ± 0.6 µg/dL. Also, the “effect on serum thyroxine levels” value in [10] (diabetic mammals) is on record as “reducing serum thyroxine levels”.
